# In US9994554B2, “Barbiturate and thiobarbiturate compounds for use in cancer therapy” (NUHOPE, LLC, priority 2011, dated 2018):
# Columns and labels:
# U251 = assay: Cytotoxicity (MTS or SRB assay), U251; format: cell-based; details: human astrocytoma or glioblastoma cell line
# Procedure: (§2) Human neuroblastoma cell lines were cultured in Dulbecco's Modified Eagle Medium (DMEM)/F12 media. Human glioma cells were ordered from American Type Culture Collection (ATCC, Manassas, Va.), and maintained in DMEM with 4×10^−3M L-glutamine, 100 U/ml penicillin, 100 μg/ml streptomycin, and 10% fetal bovine serum (FBS). All experiments were performed at 37° C. in 5% CO2 atmosphere under cell culture conditions. Prior to γ-radiation or exposure to chemotherapeutic agents, the glioma cells were plated at a density of 156 to 8,000 cells per well in 96 well plates to account for differences in growth rates, and to obtain similar cell densities for the experimental manipulations, and cultured overnight. […] Cell cytotoxicity assay was determined by MTS [3-(4,5-dimethylthiazol-2-yl)-5-(3-carboxymethoxyphenyl)-2-(4-sulfophenyl)-2H-tetrazolium, inner salt] Cell Proliferation Assay (Promega, Madison, Wis.) or sulforhodamine B (SRB) assay at the end of the exposure period (47, 48).
# CCF-STTG1 = assay: cells
# Procedure: Human neuroblastoma cell lines were cultured in Dulbecco's Modified Eagle Medium (DMEM)/F12 media. Human glioma cells were ordered from American Type Culture Collection (ATCC, Manassas, Va.), and maintained in DMEM with 4×10^−3M L-glutamine, 100 U/ml penicillin, 100 μg/ml streptomycin, and 10% fetal bovine serum (FBS). All experiments were performed at 37° C. in 5% CO2 atmosphere under cell culture conditions. Prior to γ-radiation or exposure to chemotherapeutic agents, the glioma cells were plated at a density of 156 to 8,000 cells per well in 96 well plates to account for differences in growth rates, and to obtain similar cell densities for the experimental manipulations, and cultured overnight. Then cells received different dosages of γ-radiation from a ^60Co source GammaCell 220 (Nordion International Inc, Ontario, Canada) or chemotherapeutic agents for another 2-6 days. Cell cytotoxicity assay was determined by MTS [3-(4,5-dimethylthiazol-2-yl)-5-(3-carboxymethoxyphenyl)-2-(4-sulfophenyl)-2H-tetrazolium, inner salt] Cell Proliferation Assay (Promega, Madison, Wis.) or sulforhodamine B (SRB) assay at the end of the exposure period (47, 48).
# Temodar®-resistant cell lines were used to screen for compounds having the ability to decelerate the growth of, or kill, Temodar®-resistant cells. The efficacy of over 15,000 different compounds in the Drug Discovery Core at Pennsylvania State Hershey Medical Center was tested on Temodar®-resistant human neuroblastoma SH-SY5Y and human glioma CCF-STTG1 cell lines with a colorimetric cytotoxicity assay, the sulforhodamine B (SRB) assay (53).
# Chemotype moiety compounds of CC-I were also tested on the Temodar-resistant CCF-STTG1 and Temodar®-sensitive U87-MG cell lines. The glioma cell culture and treatment is as described above.
# The human glioma CCF-STTG1 cell lines were plated at a density of 5,000 cells per well in 96 well plates under standard DMEM cell culture conditions and then exposed to different concentrations of CC-I, merbarone, or ICRF-193 for 5 days. Merbarone and ICRF-193 are both topoisomerase II inhibitors (55, 56).
# ST88 = assay: Cytotoxicity, ST88 neurofibroma cells; format: cell-based, human
# Procedure: (§1) Cells of established neurofibroma cell lines were plated at a density of 2000-4000 cells per well in 96 well plates under standard cell culture conditions (54) and then exposed to CC-I for 2 days.
# NF215 = assay: Cytotoxicity, NF215 neurofibroma cells; format: cell-based, human
# Procedure: as §1
# MCF10A = assay: Cytotoxicity, MCF10A; format: cell-based, human; details: immortalized, non-transformed mammary epithelial cell line
# MCF7 = assay: Cytotoxicity, MCF7; format: cell-based; details: human breast adenocarcinoma cell line
# Procedure: as §2
# SVGp12 = assay: Cytotoxicity, SVGp12; format: cell-based; details: SV40 transformed human astrocyte cell line
# Procedure: as §2
# OVCAR-3 = assay: Cytotoxicity, ovarian cancer cells; format: cell-based; details: human ovarian carcinoma cell line
# Procedure: To assess the effect of CC-I on the ovarian cancer cells, the cells were cultured overnight at a density of 5,000 to 10,000 cells per well in 96 well plates. Then the cells were treated with different concentrations of CC-I (Formula IV) or Formula V for another 3-6 days before cytotoxicity assay using MTS or SRB assay. The IC50 or LD50, 50% inhibition or lethal dose, of compounds is also determined using statistical software (GraphPad) as a general indicator of toxicity.
# WT/SH-SY5Y = assay: Cytotoxicity, WT/SH-SY5Y neuroblastoma; format: cell-based; details: wild type HFE transfected human neuroblastoma SH-SY5Y
# Procedure: as §2
# A549 cells = assay: pXC50 on A549 cells (later tests); format: cell-based
# CCF-STTG1 cell tumors = assay: Athymic nude mouse subcutaneous glioma tumor model; details: 25 mg/kg i.p. once a week for 7 weeks
# Procedure: The efficacy and toxicity of CC-I was tested in vivo using the athymic nude mouse subcutaneous tumor model. Ten million cells of the Temodar®-sensitive (SW1088) or Temodar®-resistant (CCF-STTG1) malignant glioma cell lines were injected into the flank of one-month-old, female athymic nude mice. When the tumor reached 32 mm^3 in size (week I on graph), CC-I (25 mg/kg) was injected intraperitoneally once a week for 7 weeks.
# CCF-STTG1 cells = assay: FITC-Annexin V/propidium iodide apoptosis assay; format: cell-based, human
# Procedure: An FITC-labeled Annexin V/propidium iodide apoptosis assay kit (Molecular Probes) was used to determine whether CC-I induces apoptosis in an astrocytoma cell line. […] The percentage of apoptotic cells by the CC-I treatment in CCF-STTG1 cells is from 10.9±0.16% at 5 pig/ml ([…]) to 48.7±0.33% at 10 μg/ml (36.2 μM). By comparison, the positive control, actinomycin D, induced apoptosis in 47.8±0.04% of the cells at 0.05 μg/ml (39.8 nM).
# topoisomerase IIα [1] = target: T1, topoisomerase IIα (Homo sapiens, UniProt P11388); assay: kDNA decatenation assay; format: biochemical
# Source text: To assess whether CC-I is a human topoisomerase IIα inhibitor, we determined the ability of CC-I to inhibit topoisomerase IIα activity using a kDNA decatenation assay.
# human topoisomerase I = human topoisomerase I (Homo sapiens, UniProt P11387); assay: Supercoiled pBR322 DNA relaxation assay; format: biochemical; details: concentrations as high as 50 μg/ml
# Source text: To determine whether CC-I is a specific inhibitor of topoisomerase I or IIα, the ability of CC-I to inhibit topoisomerases I and IIα activity was examined using a supercoiled DNA relaxation assay.
# topoisomerase IIα [2] = target: T1, topoisomerase IIα; assay: Supercoiled pHOT1 DNA relaxation assay; format: biochemical
# [3] = tested on: C282Y HFE variant expressing neuroblastoma SH-SY5Y cells; assay: SCID mouse subcutaneous neuroblastoma tumor model; details: 25 mg/kg i.p. once a week for 7 weeks
# Procedure: To determine the effect of CC-I on neuroblastoma, an in vivo subcutaneous tumor model in SCID mice was examined. One month old, female SCID mice were injected subcutaneously in the flank region with a Temodar®- and radiation-resistant C282Y HFE variant expressing neuroblastoma SH-SY5Y cells. After the tumor attained a volume of 32 mm^3, CC-I (25 mg/kg) was injected intraperitoneally once a week for 7 weeks.
# T1 sequence (P11388 whole entry): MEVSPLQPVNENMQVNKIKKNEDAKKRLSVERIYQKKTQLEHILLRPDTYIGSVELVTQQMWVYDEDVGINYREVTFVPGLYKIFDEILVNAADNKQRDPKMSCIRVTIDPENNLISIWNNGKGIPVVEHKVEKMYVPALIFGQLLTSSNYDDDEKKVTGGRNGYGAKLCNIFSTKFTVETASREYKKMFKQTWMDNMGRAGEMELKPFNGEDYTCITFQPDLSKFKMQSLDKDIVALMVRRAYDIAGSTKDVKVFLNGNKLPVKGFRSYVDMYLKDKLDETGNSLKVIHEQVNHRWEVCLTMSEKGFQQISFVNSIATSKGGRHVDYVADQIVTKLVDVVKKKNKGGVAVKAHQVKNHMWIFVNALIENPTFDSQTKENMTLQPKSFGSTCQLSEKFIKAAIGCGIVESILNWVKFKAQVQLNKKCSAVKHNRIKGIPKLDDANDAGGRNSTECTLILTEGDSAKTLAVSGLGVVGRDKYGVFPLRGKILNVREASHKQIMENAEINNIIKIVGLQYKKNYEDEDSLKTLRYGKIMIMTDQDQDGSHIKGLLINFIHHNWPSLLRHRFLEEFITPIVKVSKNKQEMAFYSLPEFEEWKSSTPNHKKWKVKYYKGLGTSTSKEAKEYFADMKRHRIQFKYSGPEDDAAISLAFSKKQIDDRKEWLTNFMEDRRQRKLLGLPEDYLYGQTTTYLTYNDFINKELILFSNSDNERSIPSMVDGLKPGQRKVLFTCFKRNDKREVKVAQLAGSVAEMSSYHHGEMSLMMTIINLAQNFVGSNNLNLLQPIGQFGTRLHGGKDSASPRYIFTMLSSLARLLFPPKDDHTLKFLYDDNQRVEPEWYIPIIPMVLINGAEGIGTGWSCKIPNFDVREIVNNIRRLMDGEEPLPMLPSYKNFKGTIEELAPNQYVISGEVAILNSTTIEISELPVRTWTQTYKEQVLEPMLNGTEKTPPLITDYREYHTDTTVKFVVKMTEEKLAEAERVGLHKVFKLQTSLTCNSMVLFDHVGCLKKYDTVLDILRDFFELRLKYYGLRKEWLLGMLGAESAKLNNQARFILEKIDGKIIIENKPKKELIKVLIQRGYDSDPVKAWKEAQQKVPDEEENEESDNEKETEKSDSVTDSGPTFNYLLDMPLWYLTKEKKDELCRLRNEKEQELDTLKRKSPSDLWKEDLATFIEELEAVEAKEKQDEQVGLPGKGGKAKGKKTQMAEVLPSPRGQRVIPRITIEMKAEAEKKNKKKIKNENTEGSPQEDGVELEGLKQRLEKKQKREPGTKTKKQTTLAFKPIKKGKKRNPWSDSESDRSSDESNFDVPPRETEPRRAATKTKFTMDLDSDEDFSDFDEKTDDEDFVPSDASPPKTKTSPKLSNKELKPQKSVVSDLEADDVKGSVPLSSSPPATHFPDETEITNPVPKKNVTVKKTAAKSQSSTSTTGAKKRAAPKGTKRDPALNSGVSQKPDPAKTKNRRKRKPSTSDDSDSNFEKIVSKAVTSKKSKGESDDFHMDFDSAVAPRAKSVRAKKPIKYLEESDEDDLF
# Chain of human topoisomerase I (P11387 whole entry): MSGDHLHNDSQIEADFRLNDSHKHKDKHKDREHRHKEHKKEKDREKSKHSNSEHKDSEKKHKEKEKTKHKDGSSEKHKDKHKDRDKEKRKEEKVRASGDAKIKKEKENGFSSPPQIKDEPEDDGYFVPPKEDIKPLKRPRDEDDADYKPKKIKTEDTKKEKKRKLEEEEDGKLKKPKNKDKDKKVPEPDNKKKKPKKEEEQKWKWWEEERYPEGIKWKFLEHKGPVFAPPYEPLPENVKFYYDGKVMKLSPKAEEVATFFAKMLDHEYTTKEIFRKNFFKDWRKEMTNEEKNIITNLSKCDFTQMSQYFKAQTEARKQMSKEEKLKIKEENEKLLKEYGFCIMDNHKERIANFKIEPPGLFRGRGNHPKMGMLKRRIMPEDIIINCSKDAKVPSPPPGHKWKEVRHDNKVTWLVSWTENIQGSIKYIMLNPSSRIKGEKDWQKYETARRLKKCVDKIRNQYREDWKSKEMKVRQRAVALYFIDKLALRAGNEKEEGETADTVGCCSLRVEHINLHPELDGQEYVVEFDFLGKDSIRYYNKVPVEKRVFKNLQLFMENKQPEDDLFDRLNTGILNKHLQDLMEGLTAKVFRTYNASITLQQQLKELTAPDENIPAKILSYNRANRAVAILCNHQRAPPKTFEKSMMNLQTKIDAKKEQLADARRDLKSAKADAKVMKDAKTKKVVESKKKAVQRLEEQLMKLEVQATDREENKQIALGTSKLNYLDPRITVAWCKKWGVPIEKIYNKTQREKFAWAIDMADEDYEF
structure (smiles),measurement,setting,value
CCN1C(=O)C(=C/C=C/c2ccco2)C(=O)NC1=S [CC-I],IC50,U251,3.8 µM
same,cytotoxicity compared with merbarone or ICRF-193,"CCF-STTG1; CCF-STTG1, 5 days",more cytotoxic
same,IC50,"CCF-STTG1; read-out: IC50 (μM) CCF-STTG1, human astrocytoma or glioblastoma cell line, Temodar-resistant",4.3 µM
same,LD50,"ST88; ST88 neurofibroma cells, 2 days exposure",2.1 µg/mL
same,IC50,ST88; human neurofibroma cell line,7.5 µM
same,LD50,"NF215; NF215 neurofibroma cells, 2 days exposure",1.4 µg/mL
same,IC50,NF215; human neurofibroma cell line,5.1 µM
same,IC50,MCF10A,6.5 µM
same,IC50,MCF7,15.6 µM
same,IC50,SVGp12,4.2 µM
same,IC50,OVCAR-3,3.5 µM
same,IC50,WT/SH-SY5Y,3.3 µM
same,pXC50,A549 cells,4.5
same,body weight of the mice,CCF-STTG1 cell tumors,not affected
same,liver or kidney toxicity,CCF-STTG1 cell tumors,No liver or kidney toxicity
same,growth of subcutaneous tumors,"CCF-STTG1 cell tumors; CCF-STTG1 tumors, nude mice",completely inhibited
same,percentage of apoptotic cells,"CCF-STTG1 cells; CCF-STTG1, at 10 μg/ml (36.2 μM)",48.7±0.33%
same,percentage of apoptotic cells,"CCF-STTG1 cells; CCF-STTG1, at 5 pig/ml (18.1 µM)",10.9±0.16%
same,concentration completely inhibiting topoisomerase IIα catalyzed kDNA decatenation,topoisomerase IIα [1],greater than 6 μg/ml
same,effect on topoisomerase I activity,human topoisomerase I,no effect
same,concentration completely inhibiting topoisomerase IIα catalyzed pHOT1 relaxation,topoisomerase IIα [2],greater than 3 μg/ml
same,most effective concentration on topoisomerase IIα activity,topoisomerase IIα [2],3 µg/mL
same,body weight,[3],unaffected
same,liver or kidney toxicity,[3],No liver or kidney toxicity
same,tumor growth,[3]; SCID mice,completely inhibited tumor growth
